Reference: patent US20170172450A1, “SYSTEM AND METHODS FOR QUANTITATIVELY DESCRIBING BIOPHYSICAL MARKERS” (STC.UNM, priority 2014, published 2017)

Legend:
[1] = breast tumors of patients; cited from earlier work
[2] = Toxicity monitoring in clinical trial of intraoperative gemcitabine infusion; type: in vivo, human
Procedure: Pancreatic resection was performed using standard techniques and major surgical complications were defined as previously described. […] Serum samples were collected at regular intervals during the operation to determine gemcitabine pharmacokinetics. The MD Anderson Data and Safety Monitoring Board oversaw the study. Drug toxicities were evaluated according to Common Terminology Criteria for Adverse Events version 3.0. Daily postoperative labs including absolute neutrophil counts (ANC) and platelet counts were drawn. Patients received full supportive care and the use of growth factors was permitted for myelosuppression (ANC<0.5×10^9). There were 3 patients with grade III neutropenia or leukopenia, and 3 patients with grade II neutropenia. All cytopenias were transient with nadir at approximately postoperative day 6.

[3] = Gemcitabine incorporation into DNA of cells in pancreatic tumor and normal pancreas (punch biopsies, Advion assay); type: in vivo, human
Procedure: Pancreatic resection was performed using standard techniques and major surgical complications were defined as previously described. Gemcitabine was administered intravenously at 500 mg/m^2 for the first 2 patients (per IRB safety recommendations) and then subsequently at 1000 mg/m^2 with an infusion pump at a fixed dose rate of 10 mg/m^2/min (over 50 min and 100 min respectively) and was delivered at the start of operation and concluded prior to specimen removal. Serum samples were collected at regular intervals during the operation to determine gemcitabine pharmacokinetics.
Immediately after specimen collection, tumors were bivalved by a surgical pathologist and 4.0 mm punch biopsies were taken from the outer and inner portions of the tumors (median 4 samples per tumor) as well from as the normal pancreas. The punch biopsies were sent for quantitative analysis of the gemcitabine metabolite incorporation into the DNA of the cells within the pancreatic tumor (i.e., cancer and stromal cells) and normal pancreas (Advion BioServices, Ithaca, N.Y.). […]
The pancreatectomy specimens were evaluated by a pathologist. […] The locations of the tumor biopsy samples that were used to quantify gemcitabine incorporation were recorded as either inner or outer tumor. […] These specimens were then processed as previously described for quantitative analysis of gemcitabine DNA incorporation (Advion Biosciences). […]

[4] = dose of 300 mg/m^2; cited from earlier work
[5] = 12 PDAC patients, IV 500 or 1000 mg/m^2 at 10 mg/m^2/min during resection, CTCAE version 3.0

Row | SMILES | intra-tumoral heterogeneity in delivery [1] | thrombocytopenia ([2]; 12 PDAC patients, intraoperative IV infusion) | patients with grade II neutropenia [2, 5] [patients] | patients with grade III neutropenia or leukopenia [2, 5] [patients] | nadir of cytopenias ([2]; all cytopenias transient) [postoperative day] | infectious complications ([2]; whole cohort) | gemcitabine incorporation in the tumors relative to normal pancreas ([3]; 12 patients with localized primary PDAC) | drug delivery to tumor ([3]; intraoperative gemcitabine infusion trial) | differences in gemcitabine incorporation into the primary tumors [4]
1 | COc1cccc2c1C(=O)c1c(O)c3c(c(O)c1C2=O)C[C@@](O)(C(=O)CO)C[C@@H]3O[C@H]1C[C@H](N)[C@H](O)[C@H](C)O1 [doxorubicin] | some parts of the tumor not receiving any drug | – | – | – | – | – | – | – | –
2 | Nc1ccn([C@@H]2O[C@H](CO)[C@@H](O)C2(F)F)c(=O)n1 [gemcitabine] | – | No significant thrombocytopenia | 3 | 3 | ~6 | no infectious complications | ranged from sub- to supra-normal pancreas levels | measureable drug delivery in all patients | up to 5 fold
